# How the values were obtained:
# [1] = test system: PCSK9; assay: Basal_PCSK9 HepG2, primary SP and CRC (secreted PCSK9, ELISA); type: cell-based, human
# Protocol: To study the effect of the compounds on PCSK9 secretion we used 1×10^6 HepG2 cells in 6-well culture plates, followed by incubation with media only, media+0.1% DMSO or Media+5 uM of 31/33/34/35 in 0.1% DMSO and collection of 50 ul of media at 8, 16, 24 and 40 hours or incubation with increasing concentration (0.2-50 μM) of 34 in 0.1% DMSO for 24 hours and collection of 50 ul of media. The collected media was analyzed for PCSK9 levels using commercially available ELISA kit (MBL-international, catalog # CY-8079) following the manufacturer instruction.
# The below data (Table 2) was generated using the assays as discussed in Examples 1-2. Blanks mean no testing was performed. […] For the SP assays, the higher the number, the higher the inhibition, e.g., the better the activity of the compound. Compounds with a determined IC50 are particularly active, the IC50 values were determined via dose response curve (under the heading CRC which stands for concentration response curve aka dose response curve).
# [2] = test system: PCSK9 mRNA; assay: PCSK9 transcription in HepG2 cells (real-time PCR); type: cell-based, human; details: FIG. 1B
# Protocol: To study whether 34 affect PCSK9 mRNA levels we used 1×10^6 HepG2 cells in 6-well culture plates, followed by incubation with media+0.1% DMSO or increasing concentration (0.2-50 μM) of 34 in 0.1% DMSO for 24 hours. After 24 hours media was aspirated, cells were washed with HBSS followed by RNA extraction kit (RNeasy, QIAGEN cat #74-104). mRNA was reversed transcribed to cDNA using commercially available kit (ThermoFisher, cat #4368814) and analyzed using real-time PCR for PCSK9 transcript levels using the relative expression method known as delta-delta CT.
# [3] = molecular target: recombinant PCSK9 (Homo sapiens, UniProt Q8NBP7); assay: PCSK9 detection interference (ELISA); details: FIG. 5A
# Protocol: To study whether 34 directly interfere with PCSK9 detection we used recombinant PCSK9 (30 ng/ml) was mixed with increasing concentration (0.2-50 μM) of 34 in 0.1% DMSO followed by detection of PCSK9 using commercially available ELISA kit (MBL-international, catalog # CY-8079) following the manufacturer instruction.
# [4] = molecular target: T1, PCSK9 binding to LDLR (EGF-A domain) (Homo sapiens, UniProt Q8NBP7); assay: PCSK9-LDLR interaction ELISA; details: FIG. 5B
# T1 construct: purchased MBL-international CY-8150
# Protocol: To study whether increasing concentrations of 34 (0.2-50 μM) directly interfere with PCSK9-LDLR interaction we used a commercially available ELISA kit (MBL-international, catalog # CY-8150) following the manufacturer instruction.
# [5] = test system: apoE; assay: apoE secretion, HepG2 (ELISA); type: cell-based, human; details: HepG2, FIG. 7A
# Protocol: The collected media was analyzed for apoE levels using commercially available ELISA kit (ABCAM, catalog #108813) following the manufacturer instruction.
# [6] = test system: apoE; assay: Intracellular apoE, HepG2 (western blot); type: cell-based, human; details: 40 hours of incubation, HepG2, FIG. 7C
# Excerpt: […] […] Protein extracts (25 μgr) were used for immunodetection of intracellular […] (western blot analysis) with a commercially available primary antibody against apoE (ABCAM, catalog #1906), HRP-conjugated secondary antibody (SIGMA-ALDRIC, catalog # A5420) visualized using an enhanced chemiluminescence (ECL) solution (Cumaric acid, Luminol and hydrogen peroxide), developed in a LiCore imager.
# [7] = test system: 4000 most abundant proteins in HepG2 cells; assay: Shotgun proteomics of HepG2 cells; type: cell-based, human; details: 5 μM, FIGS. 8A-8B
# Protocol: To study whether 34 affect total protein levels in hepG2 in an unbiased analysis we used 1×10^6 HepG2 cells in 6-well culture plates, followed by incubation with media+0.1% DMSO or DMSO or with increasing concentration (2.5-10 μM) of 34 in 0.1% DMSO for 24 hours. After 24 hours media was aspirated, cells were washed with HBSS followed by shotgun proteomics analysis of the most abundant ˜4000 cellular proteins. Spectral count for each protein was compared between untreated (0.1% DMSO) to treated (34 at 5 μM) samples.
# [8] = test system: LDLR; assay: Hepatic LDLR levels in mice (western blot); type: in vivo; details: livers on day 5 after daily oral 100 mg/kg/day, FIG. 14B
# Protocol: 2) Daily dosage experiments: mice were administered daily oral gavage with 200 μl of 34 (100 mg/kg) in 0.1% Tween80+1% hydroxyethyl cellulose (HEC) in buffered (PBS pH7.4) solution. 50-70 μl of blood was collected from the retro-orbital plexus on day 3 and day 5 after 34 administration, on day 5 mice were euthanized and liver were collected and analyzed as mentioned below under the “Liver analyses” section. Blood was left to clot at room temperature for 20 min, followed by serum separation (spin at 1000 g for 10 min). Serum was analyzed as described below: Hepatic LDLR levels—To study whether 34 affect hepatic LDLR levels we used 10 mg of PBS-flushed livers. Livers were minced and proteins were extracted using available RIPA buffer (SIGMA-ALDRICH, catalog #20-188). Protein extracts (5 μgr) were used for immunodetection of intracellular LDLR (western blot analysis) with a commercially available primary antibody against LDLR (ABCAM, catalog #14056), HRP-conjugated secondary antibody (ABCAM, catalog #97135) visualized using an enhanced chemiluminescence (ECL) solution (Cumaric acid, Luminol and hydrogen peroxide), developed in a LiCore imager.
# [9] = test system: HepG2 cells; assay: LDL-cholesterol uptake in HepG2 cells (3H-cholesterol); type: cell-based, human; details: 10 uM for 24 hours, FIG. 16
# Protocol: To determine whether Compound 34 increases LDL-cholesterol uptake, LDL was isolated from human plasma using ultracentrifugation and the cholesterol content of the particle was radiolabeled with 3H-cholesterol. Hepatoma cells (HepG2) were cultured (0.25×10^6 cell/well in a 24-well plate) with or without 10 uM of B004 (compound 34) for 24 hours in DMEM. Radiolabeled LDL-cholesterol (LDL-c) was added to the cells for 4 hours. Cells were washed 3 times with PBS and left to air dry. 500 μl of isopropanol was added to each well and incubate with shaking at room temperature for 3 hours in a sealed container. 50 μl of the isopropanol was placed into a scintillation vial together with 4.5 ml of scintillation liquid cocktail (Scintiverse BD). 3H-cholesterol levels were read using a beta emission radioactive counter.
# Sequence of recombinant PCSK9 (Q8NBP7 153-692): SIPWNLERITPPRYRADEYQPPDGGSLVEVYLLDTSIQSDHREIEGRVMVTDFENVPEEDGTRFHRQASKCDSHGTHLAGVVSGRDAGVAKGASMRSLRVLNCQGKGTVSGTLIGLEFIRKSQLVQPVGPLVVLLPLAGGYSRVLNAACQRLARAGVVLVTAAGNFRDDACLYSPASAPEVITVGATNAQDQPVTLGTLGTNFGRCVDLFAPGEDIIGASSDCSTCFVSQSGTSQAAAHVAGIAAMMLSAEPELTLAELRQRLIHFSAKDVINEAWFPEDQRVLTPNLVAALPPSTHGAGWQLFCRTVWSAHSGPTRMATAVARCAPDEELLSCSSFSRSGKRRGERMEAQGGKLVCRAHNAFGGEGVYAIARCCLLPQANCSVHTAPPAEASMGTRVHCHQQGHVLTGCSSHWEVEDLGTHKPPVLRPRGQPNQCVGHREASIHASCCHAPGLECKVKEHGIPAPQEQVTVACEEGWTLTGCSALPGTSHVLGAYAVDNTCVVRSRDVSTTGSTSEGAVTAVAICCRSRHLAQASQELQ
# T1 sequence (Q8NBP7 153-692): as above
# T1 sequence (Q8NBP7 31-152 partner limits assumed): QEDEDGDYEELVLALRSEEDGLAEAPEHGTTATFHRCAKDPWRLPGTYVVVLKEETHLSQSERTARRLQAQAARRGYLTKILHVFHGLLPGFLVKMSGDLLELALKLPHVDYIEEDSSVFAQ
compound,measurement,setting,value
CC(=O)Oc1ccc(C2CC3(CCCCC3)c3c2[nH]c2ccccc32)cc1 (stereo not shown) [Compound 34],Primary SP Basal_PCSK9 HepG2 SP % Inhib @ 5 μM,"[1]; 5 μM, HepG2, single point",5.2%
same,accumulation of PCSK9 in culture media,"[1]; 5 μM, HepG2 cells, FIGS. 2A-2B",significantly reduced accumulation of PCSK9 in culture media in a time-dependent and concentration-dependent manner
same,Primary SP Basal_PCSK9 HepG2 SP % Inhib @ 50 μM,"[1]; 50 μM, HepG2, single point",100.1%
same,IC50,"[1]; HepG2, concentration response curve",3.5 µM
same,"activity rating in words (PCSK9 inhibition, Table 2)",[1]; summary of Table 2 data,particularly strongly active
same,PCSK9 mRNA levels,[2],reduces levels of PCSK9 mRNA in a dose-dependent manner
same,interference with PCSK9 detection,[3],does not interfere with PCSK9 detection
same,PCSK9 binding to LDLR (EGF-A domain),[4],does not affect PCSK9 binding to LDLR (EGF-A domain)
same,secreted apoE levels,[5],"no changes in secreted, intracellular, or mRNA levels of apoE"
same,intracellular apoE levels,[6],"no changes in secreted, intracellular, or mRNA levels of apoE"
same,levels of the 4000 most abundant proteins,[7],does not affect the levels of the 4000 most abundant proteins in HepG2 cells
same,increase in hepatic LDLR,[8],16.2%
same,LDL-cholesterol uptake,[9],increases LDL-cholesterol uptake in HepG2 cells
